Laboratory results from US20250281645A1, “Lentiviral Vector” (Ospedale San Raffaele S.r.l., priority 2022, published 2025).

Tests used:
Details in all cases: mouse, in vivo
Adult mice = system: Adult mice
Ldlr^−/− mice = system: Ldlr^−/− mice
Method: (§1) (a) Experimental design: 8 weeks old mice C57 or Ldlr^−/− (n=4-6 per each condition) are injected with Bortezomib and/or Marl and/or fasted for 24 hours, before receiving LV (dose 2.75×10^10 TU/Kg) i.v. Then, hFIX is monitored in treated mice longitudinally. (b, c) Mean with SEM of hFIX antigen measured in the plasma of LV treated mice over time (4 and 26 wk post LV timepoint). Two-way ANOVA with Dunnett's multiple comparisons test vs LV control, performed for each of the two strains used.
(§2) According to the groups, mice were either faster for 24 hours, injected with Marl 3 hours before LV and/or injected with Bortezomib 1-hour before LV. Circulating hFIX amounts were then monitored longitudinally (FIG. 11A).
Wild-type C57Bl/6 adults, Ldlr/adults, Alb-F8*R593C adults, Ldlr^−/− 2-week old mice and C57 BI/6 2-week old were used in these studies. Founder B6; 129S-7-Ldlrtm1 Her/J mice (referred to as Ldlr^−/−) were obtained from the Jackson Laboratories (stock #:002207). […] C57BL/6 mice were purchased from Jackson laboratories (stock #000664). […] LV was administered in adult mice, males and females (7-10-weeks of age), through either tail vein or retro-orbital plexus (250-500 μL/mouse). LV was administered in juvenile mice (2 weeks of age) through retro-orbital plexus (100-200 μL/mouse). Mice were bled from the retro-orbital plexus through capillary tubes. Blood was collected in 0.38% sodium citrate buffer, pH 7.4. […] For fasting experiments, mice were starved for 24-hours and then treated or not with LV. For experiments with Bortezomib (Velcade), the drug (1 mg/kg) was administered, once diluted in saline, i.v. 1 hour before LV administration. […]
(§3) hFIX ELISA assay was used to assess hFIX concentration in mouse plasma samples (Affinity Biologicals, FIX-EIA), in accordance with the manufacturer's protocol. Absorbance of each sample was determined spectrophotometrically, using a Multiskan GO microplate reader (Thermo Fisher Scientific) and normalized to antigen standard curves.

C57 mice = system: C57 mice
Method: as §1, §2
Wild-type C57Bl/6 adults, Ldlr/adults, Alb-F8*R593C adults, Ldlr^−/− 2-week old mice and C57 BI/6 2-week old were used in these studies. Founder B6; 129S-7-Ldlrtm1 Her/J mice (referred to as Ldlr^−/−) were obtained from the Jackson Laboratories (stock #:002207). […] C57BL/6 mice were purchased from Jackson laboratories (stock #000664). […]
as §3

CC(C)C[C@H](NC(=O)[C@H](Cc1ccccc1)NC(=O)c1cnccn1)B(O)O [Bortezomib]
VCN in KC (Adult mice): reduced VCN | VCN in LSEC (Adult mice): increase | VCN in hepatocytes (Adult mice): trend of increase | VCN in pDC (Adult mice): reduced VCN | hFIX circulating amounts versus controls (Adult mice; iv): higher than controls | overall increase in transgene output, combination of fasting and Bortezomib (Ldlr^−/− mice): 4.5-6 fold | transgene output when combined with fasting, compared to use as single treatments (Ldlr^−/− mice): milder increase in Ldlr^−/− than C57 | transgene output, single treatment (Ldlr^−/− mice): give an advantage | transgene output in combination with fasting, versus LV controls (C57 mice): 11-12 fold | transgene output compared to LV only, single treatment (C57 mice; iv): enhanced transgene output
